In patent publication US11820756B2, “Bradykinin B2 receptor antagonists” (Pharvaris Netherlands B.V., priority 2017, dated 2023):

target: T1, human bradykinin B2 receptor (hB2R) (Homo sapiens, UniProt P30411); assay: cell-based human bradykinin B2 receptor calcium mobilization (hB2R-CaM) assay; conditions: HTS041C cells, bradykinin at EC80, calcium mobilization; read-out: IC50-value towards human bradykinin B2 receptor (hB2R)
T1 sequence (P30411 1-391): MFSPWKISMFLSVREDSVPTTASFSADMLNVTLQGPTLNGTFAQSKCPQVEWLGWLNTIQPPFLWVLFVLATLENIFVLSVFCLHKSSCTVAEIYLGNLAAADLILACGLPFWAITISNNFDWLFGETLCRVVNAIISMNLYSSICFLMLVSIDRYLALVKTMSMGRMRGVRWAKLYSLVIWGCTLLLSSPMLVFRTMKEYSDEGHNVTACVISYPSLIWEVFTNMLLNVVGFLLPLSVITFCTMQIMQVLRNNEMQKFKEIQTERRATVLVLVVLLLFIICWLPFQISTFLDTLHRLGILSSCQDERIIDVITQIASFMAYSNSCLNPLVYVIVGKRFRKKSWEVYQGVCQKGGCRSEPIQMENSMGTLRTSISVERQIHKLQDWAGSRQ
Description: The following cell-based human bradykinin B2 receptor calcium mobilization (hB2R-CaM) assay was used to determine the antagonistic activity of compounds selected from the example compounds Nos. 1 to 168 towards human bradykinin B2 receptor (hB2R). The assay is defined herein as a standard in vitro B2 receptor activity assay, which can be used to determine IC50 values of the compounds according to the present invention, e. g. the compounds shown in Examples 1-11.
The antagonistic activity of compounds according to the present invention was investigated with the hB2R-CaM assay using the B2 Bradykinin Receptor Stable Cell Line HTS041C (Eurofins, St. Charles MO) and the FLIPR Calcium 6 Assay Kit (Molecular Devices, Wokingham, UK) according to the instructions of the providers. CaM assay measurements were performed with a Flexstation 3 System (Molecular Devices) which allows the precise addition of compounds (B2R antagonists) and bradykinin (B2R agonist) to the cells and adjacent continuous recording of the time-dependent CaM assay signals.
HTS041C cells were cultured in high glucose DMEM cell culture medium (Lonza) supplemented with 10% heat-inactivated FBS (PAN Biotech), 10 mM HEPES, Penicillin/Streptomycin (200 U/mL, 200 μg/mL), 1× non-essential amino acids (Lonza), and 250 μg/mL G418 (Invivogen) in cell incubator at 37° C. in a 5% CO2 atmosphere.
One day before the CaM assay experiments cells were seeded in 200 μL DMEM cell culture medium with reduced FBS (5%) and without G418 on clear bottom black 96 well plates (ThermoFisher #165305). Cell starvation was carried out by incubation (37° C., 5% CO2) of 70.000 cells/well for 24 h to 28 h. Immediately prior calcium dye-loading the medium was carefully aspirated and cells were washed with Hank's balanced salt solution (HBSS, Gibco) containing Ca^2+, Mg^2+ and 20 mM HEPES, adjusted to pH 7.4 (HBSS+). Calcium Dye Loading of the Cells:
For calcium dye-loading one FLIPR 6 assay aliquot was dissolved in 20 mL HBSS+. 150 μL of the dye loading solution was added to cell plate and incubated for 120 min at 37° C. and 5% CO2. After dye loading the cell plate was immediately transferred to the pre-warmed (37° C.) Flexstation 3 System for CaM assaying.
Freshly prepared compound (B2 receptor antagonists) dilution series (8 pt, n=2) and bradykinin (B2 receptor agonist) solution in non-binding plates (Costar) were transferred to the Flexstation System (source plate) shortly before starting the experiment. Bradykinin was added in EC80 concentration determined in n>3 preliminary experiments with 8 pt concentration response curves (n=8)). CaM assay was executed by Flexstation 3 System starting with recording of calcium-sensitive dye fluorescence in bottom-read Flex modus with ex/em=485 nm/525 nm, cut off(em)=[…]. After 20 s, 50 μL of 4-fold concentrated compound dilutions were added to the cells resulting in a final DMSO (Sigma) concentration of 0.1% in the cell plate. CaM signals were monitored for 80 s after additions for detection of potential agonistic activities. Prior to bradykinin stimulus compound- and vehicle-treated cells were incubated for 25 min at 37° C. within the Flexstation System. Then 50 μL of a 5-fold concentrated bradykinin solution (HBSS+, 0.1% DMSO) was added to trigger CaM signals (Read out: Max-Min values) which were measured for 80 s post bradykinin stimulus.
IC50 determinations were performed by 4 parameter logistic model curve fitting of the 8 pt (n=2) compound concentration response curves using XLFIT (IDBS) software.
Relative IC50 values of the test compounds were determined with the same hB2R-CaM assay as in Example 12.

IC50 [nM]	Compound
≤ 50	Cc1cc(-c2ccnn2C)c2cccc(OCc3c(Cl)cc(F)cc3[C@H](C)NC(=O)[C@@H](C)O)c2n1 [Compound 192]
251 to 1000	Cc1cc(-n2cc(F)cn2)c2cccc(OCc3c(Cl)cc(F)cc3[C@H](C)NC(=O)[C@@H](O)CN)c2n1 [Compound 21]
≤ 50	Cc1cc(-c2ncnn2C)c2cccc(OCc3c(Cl)cc(F)cc3[C@H](C)NC(=O)C3CCC(C)(C)O3)c2n1 (stereo partly shown) [Compound 118]
51 to 250	Cc1cc(-n2cc(F)cn2)c2cccc(OCc3c(Cl)cc(F)cc3[C@H](C)NC(=O)[C@@H](C)OC(F)F)c2n1 [Compound 93]
≤ 50	Cc1cc(-c2[nH]ncc2C)c2cccc(OCc3c(Cl)cc(F)cc3[C@H](C)NC(=O)[C@@H](C)O)c2n1 [Compound 188]
≤ 50	CCc1ncnn1-c1cc(C)nc2c(OCc3c(Cl)cc(F)cc3[C@H](C)NC(=O)C(C)F)cccc12 (stereo partly shown) [Compound 172]
≤ 50	Cc1cc(-c2ncc(C#N)n2C)c2cccc(OCc3c(Cl)cc(F)cc3[C@H](C)NC(=O)COC(F)F)c2n1 [Compound 205]
≤ 50	Cc1cc(-c2ncnn2C)c2cccc(OCc3c(Cl)cc(F)cc3[C@H](C)NC(=O)[C@@H](C)OC(F)F)c2n1 [Compound 85]
≤ 50	CO[C@@H](C)C(=O)N[C@@H](C)c1cc(F)cc(Cl)c1COc1cccc2c(-n3cc(F)cn3)cc(C)nc12 [Compound 16]
≤ 50	Cc1cc(-c2ncnn2C)c2cccc(OCc3c(Cl)cc(F)cc3[C@H](CO)NC(=O)c3cnco3)c2n1 [Compound 191]
≤ 50	Cc1cc(-c2ccnn2C)c2cccc(OCc3c(Cl)cc(F)cc3[C@H](C)NC(=O)c3cnco3)c2n1 [Compound 196]
51 to 250	Cc1cc(-n2cc(F)cn2)c2cccc(OCc3c(Cl)cc(F)cc3[C@H](C)NC(=O)C3CNC3)c2n1 [Compound 68]
51 to 250	CCC[C@H](O)C(=O)N[C@@H](C)c1cc(F)cc(Cl)c1COc1cccc2c(-n3cc(F)cn3)cc(C)nc12 [Compound 50]
≤ 50	[2H][C@@](C)(NC(=O)COC(F)F)c1cc(F)cc(Cl)c1COc1cccc2c(-n3ncnc3C)cc(C)nc12 [Compound 168]
51 to 250	Cc1cc(-n2cc(F)cn2)c2cccc(OCc3c(Cl)cc(F)cc3[C@H](C)NC(=O)C(F)F)c2n1 [Compound 146]
≤ 50	[2H]C([2H])([2H])[C@]([2H])(NC(=O)COC(F)F)c1cc(F)cc(Cl)c1COc1cccc2c(-c3ncnn3C)cc(C)nc12 [Compound 11A, N-[(1S)-1-[3-chloro-5-fluoro-2-({[2-methyl-4-(1-methyl-1H-1,2,4-triazol-5-yl)quinolin-8-yl]oxy}methyl)phenyl](1,2,2,2-^2H4)ethyl]-2-(difluoromethoxy)acetamide]
≤ 50	Cc1cc(-n2cc(F)cn2)c2cccc(OCc3c(Cl)cc(F)cc3[C@H](C)NC(=O)C3COC3)c2n1 [Compound 57]
251 to 1000	Cc1cc(-n2cc(F)cn2)c2cccc(OCc3c(Cl)cc(F)cc3[C@H](C)NC(=O)[C@H](O)CN)c2n1 [Compound 3, (R)-3-amino-N—((S)-1-(3-chloro-5-fluoro-2-((4-(4-fluoro-1H-pyrazol-1-yl)-2-methylquinolin-8-yloxy)methyl)phenyl)ethyl)-2-hydroxypropanamide]
≤ 50	Cc1cc(-n2ncnc2C)c2cccc(OCc3c(Cl)cc(F)cc3[C@H](C)NC(=O)CC(F)(F)F)c2n1 [Compound 179]
≤ 50	Cc1cc(-n2cc(F)cn2)c2cccc(OCc3c(Cl)cc(F)cc3[C@H](C)N(C)C(=O)[C@H](C)O)c2n1 [Compound 2, (S)—N—((S)-1-(3-chloro-5-fluoro-2-((4-(4-fluoro-1H-pyrazol-1-yl)-2-methylquinolin-8-yloxy)methyl)phenyl)ethyl)-2-hydroxy-N-methylpropanamide]
≤ 50	[2H][C@@](C)(NC(=O)[C@H](C)F)c1cc(F)cc(Cl)c1COc1cccc2c(-n3ncnc3C)cc(C)nc12 [Compound 212]
≤ 50	CC[C@H](NC(=O)c1ccon1)c1cc(F)cc(Cl)c1COc1cccc2c(-c3ncnn3C)cc(C)nc12 [Compound 150]

IC50 [nM]	Compound
≤ 50	Cc1cc(-n2cc(F)cn2)c2cccc(OCc3c(Cl)cc(F)cc3[C@H](C)N(C)C(=O)CO)c2n1 [Compound 102]
≤ 50	[2H][C@@](C)(NC(=O)CC(F)(F)F)c1cc(F)cc(Cl)c1COc1cccc2c(-n3ncnc3C)cc(C)nc12 [Compound 208]
≤ 50	Cc1cc(-n2cc(F)cn2)c2cccc(OCc3c(Cl)cc(F)cc3[C@H](C)NC(=O)[C@H]3CCOC3)c2n1 [Compound 15]
≤ 50	[2H][C@@](C)(NC(=O)C(C)(F)F)c1cc(F)cc(Cl)c1COc1cccc2c(-c3ncnn3C)cc(C)nc12 [Compound 182]
≤ 50	CCn1ncnc1-c1cc(C)nc2c(OCc3c(Cl)cc(F)cc3[C@H](C)NC(=O)COC(F)F)cccc12 [Compound 140]
≤ 50	CCOCC(=O)N[C@@H](C)c1cc(F)cc(Cl)c1COc1cccc2c(-n3cc(F)cn3)cc(C)nc12 [Compound 18]
≤ 50	[2H][C@@](C)(NC(=O)CC(F)F)c1cc(F)cc(Cl)c1COc1cccc2c(-c3ncnn3C)cc(C)nc12 [Compound 210]
≤ 50	Cc1cc(-c2ncnn2C)c2cccc(OCc3c(Cl)cc(F)cc3[C@H](C)NC(=O)COC(F)(F)F)c2n1 [Compound 116]
51 to 250	Cc1cc(-n2cc(F)cn2)c2cccc(OCc3c(Cl)cc(F)cc3[C@H](C)NC(=O)C(C)C(F)(F)F)c2n1 (stereo partly shown) [Compound 54]
≤ 50	Cc1cc(-n2cc(F)cn2)c2cccc(OCc3c(Cl)cc(F)cc3[C@H](C)NC(=O)C[C@H](C)O)c2n1 [Compound 27]
≤ 50	Cc1cc(-n2nc(C)nc2C)c2cccc(OCc3c(Cl)cc(F)cc3[C@H](C)NC(=O)COC(F)F)c2n1 [Compound 134]
≤ 50	Cc1cc(-c2ncnn2C)c2cccc(OCc3c(Cl)cc(F)cc3[C@H](C)NC(=O)[C@@H](C)O)c2n1 [Compound 63]
≤ 50	Cc1cc(-n2ncnc2C)c2cccc(OCc3c(Cl)cc(F)cc3[C@H](C)NC(=O)c3cc(C)on3)c2n1 [Compound 158]
≤ 50	Cc1cc(-c2ncnn2C)c2cccc(OCc3c(Cl)cc(F)cc3[C@H](C)NC(=O)CC(F)(F)F)c2n1 [Compound 177]
≤ 50	Cc1cc(-n2cc(F)cn2)c2cccc(OCc3c(Cl)cc(F)cc3[C@H](C)N(C)C(=O)C(C)(C)O)c2n1 [Compound 101]
≤ 50	Cc1cc(-c2ncnn2C)c2cccc(OCc3c(Cl)cc(F)cc3[C@H](C)NC(=O)C(C)(F)F)c2n1 [Compound 178]
≤ 50	Cc1cc(-c2ncnn2C)c2cccc(OCc3c(Cl)cc(F)cc3[C@H](C)NC(=O)c3cccnc3)c2n1 [Compound 162]
251 to 1000	Cc1cc(-n2cc(F)cn2)c2cccc(OCc3c(Cl)cc(F)cc3[C@H](C)NC(=O)[C@](C)(O)C(F)(F)F)c2n1 [Compound 53]
51 to 250	Cc1cc(-n2cc(F)cn2)c2cccc(OCc3c(Cl)cc(F)cc3[C@H](C)NC(=O)CO)c2n1 [Compound 49]
51 to 250	Cc1cc(-c2[nH]ncc2C)c2cccc(OCc3c(Cl)cc(F)cc3[C@H](C)NC(=O)C(F)F)c2n1 [Compound 186]
≤ 50	[2H][C@@](C)(NC(=O)[C@H](C)F)c1cc(F)cc(Cl)c1COc1cccc2c(-c3ncnn3C)cc(C)nc12 [Compound 213]
